In article PMC4113806, “Characterization of ACE Inhibitory Peptides from Mactra veneriformis Hydrolysate by Nano-Liquid Chromatography Electrospray Ionization Mass Spectrometry (Nano-LC-ESI-MS) and Molecular Docking” (Marine Drugs, 2014) one finds IC50 data, which are given here for 23 molecules.

In general, IC50 refers to the concentration at which inhibition is half-maximal. A higher IC50 goes with a need for much substance.

Where “and” joins values, the source holds several entries; their conditions need not be identical. Equal entries are not always repeated. Residues, ends and D or L forms follow the SMILES beside them. No end group written: not given here.

The target of the experiment is T1, angiotensin I-converting enzyme (ACE) (Oryctolagus cuniculus, UniProt P12822).
T1 construct: purchased Sigma Chemical Co. (St. Louis, MO, USA)
T1 sequence (P12822 34-1310): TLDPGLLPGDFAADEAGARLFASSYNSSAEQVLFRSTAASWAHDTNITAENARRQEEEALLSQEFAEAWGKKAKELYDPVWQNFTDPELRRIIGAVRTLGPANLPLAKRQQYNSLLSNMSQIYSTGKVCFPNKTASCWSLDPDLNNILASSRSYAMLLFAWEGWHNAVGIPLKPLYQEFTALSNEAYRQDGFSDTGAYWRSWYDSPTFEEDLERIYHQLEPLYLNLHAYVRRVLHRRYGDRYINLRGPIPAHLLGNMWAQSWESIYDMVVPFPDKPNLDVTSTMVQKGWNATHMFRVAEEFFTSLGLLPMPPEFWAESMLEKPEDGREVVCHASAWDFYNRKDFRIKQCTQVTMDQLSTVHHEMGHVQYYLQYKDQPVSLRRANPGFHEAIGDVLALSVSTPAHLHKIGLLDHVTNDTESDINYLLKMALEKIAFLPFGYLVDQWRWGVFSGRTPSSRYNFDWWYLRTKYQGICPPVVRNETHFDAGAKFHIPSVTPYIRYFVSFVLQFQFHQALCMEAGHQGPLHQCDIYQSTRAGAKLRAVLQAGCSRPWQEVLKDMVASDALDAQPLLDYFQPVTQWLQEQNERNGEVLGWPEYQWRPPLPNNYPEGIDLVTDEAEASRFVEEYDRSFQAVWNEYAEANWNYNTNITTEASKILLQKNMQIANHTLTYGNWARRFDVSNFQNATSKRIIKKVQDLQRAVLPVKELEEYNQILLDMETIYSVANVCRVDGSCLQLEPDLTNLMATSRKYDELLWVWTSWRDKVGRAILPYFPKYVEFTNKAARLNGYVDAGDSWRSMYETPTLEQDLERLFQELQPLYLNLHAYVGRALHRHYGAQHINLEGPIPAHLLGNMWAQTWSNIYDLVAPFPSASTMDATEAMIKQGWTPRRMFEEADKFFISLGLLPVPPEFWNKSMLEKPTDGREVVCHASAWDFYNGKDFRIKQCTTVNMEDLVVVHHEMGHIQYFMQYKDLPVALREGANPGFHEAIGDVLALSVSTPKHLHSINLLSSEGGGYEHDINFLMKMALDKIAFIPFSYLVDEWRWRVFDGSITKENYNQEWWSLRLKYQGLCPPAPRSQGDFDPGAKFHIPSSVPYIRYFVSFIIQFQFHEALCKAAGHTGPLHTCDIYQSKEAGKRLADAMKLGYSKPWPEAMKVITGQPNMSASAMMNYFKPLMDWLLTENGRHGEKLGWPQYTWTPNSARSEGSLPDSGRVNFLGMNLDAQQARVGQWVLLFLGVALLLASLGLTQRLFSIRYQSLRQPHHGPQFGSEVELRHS
Kind of experiment: ACE inhibitory activity assay (HHL substrate, HPLC detection of hippuric acid). The experiment is classed as biochemical. The settings on record: chemically synthesized peptides. How it is done: ACE inhibitory activity was measured as previously described by Cushman and Cheung with minor modifications. A 10 μL sample solution (50 mM borate, pH 8.3) was added to 30 μL 2.5 mM HHL solution and incubated for 5 min at 37 °C. Subsequently, 20 μL of 0.1 U/mL ACE solution (50 mM borate, 0.3 M NaCl, pH 8.3) was added and the mixture was incubated at 37 °C for 60 min. The reaction was terminated by adding 70 μL of 1 M HCl. A blank sample of buffer alone was used as a negative control. Samples were filtered through a 0.45 μm nylon syringe filter and then separated on a C18 column (4.6 mm × 150 mm, 5 μm). HA and HHL were detected by absorbance at 228 nm. The column was eluted at a flow rate of 0.8 mL/min using a mobile phase composed of (A) 0.05% TFA in water and (B) 0.05% TFA in acetonitrile. The elution was carried out using a gradient of 10%–60% B in the first 10 min followed by 60%–10% B in the next 2 min. HA was quantified by integration of peak areas (A). Percent ACE inhibition was calculated according to the following equation: [drawing 1] (1)
The ACE inhibitory peptides identified by nano-LC MS/MS were synthesized using the solid phase method and purified by HPLC by GenScript Corporation (Nanjing, China). The ACE inhibitory activity of these chemically synthesized peptides was determined as described in Section 3.3.
`N=C(N)NCCC[C@H](NC(=O)[C@H](CCCCN)NC(=O)[C@@H](N)Cc1ccccc1)C(=O)O` [FKR] (H-Phe-Lys-Arg-OH) registered an IC50 of 77.9 µM. On to `CC(C)C[C@H](NC(=O)[C@H](C)NC(=O)[C@@H](N)CC(C)C)C(=O)N[C@@H](CCCNC(=N)N)C(=O)O` [LALR] (H-LALR-OH), for which the IC50 worked out at 1270 µM. For `CC(C)C[C@H](N)C(=O)N[C@@H](CCC(=O)O)C(=O)NCC(=O)N[C@@H](CCCNC(=N)N)C(=O)O` [LEGR] (H-LEGR-OH) the value was 1090 µM; for `CC(C)C[C@H](N)C(=O)N[C@@H](Cc1ccccc1)C(=O)N[C@@H](CCCNC(=N)N)C(=O)O` [LFR] (H-Leu-Phe-Arg-OH), 31.8 µM. `CC(C)C[C@H](NC(=O)[C@H](CCCCN)NC(=O)[C@@H](N)CC(C)C)C(=O)N1CCC[C@H]1C(=O)O` [LKLP] (H-LKLP-OH) came in with an IC50 of 367 µM. For the molecule `CC(C)C[C@H](NC(=O)[C@H](CC(C)C)NC(=O)[C@@H](N)CC(C)C)C(=O)N[C@@H](CCCNC(=N)N)C(=O)O` [LLLR] (H-LLLR-OH), the midpoint of inhibition, the IC50, lay at 1000 µM. Regarding `CC(C)C[C@H](NC(=O)[C@@H](N)CC(C)C)C(=O)N[C@@H](CCCNC(=N)N)C(=O)N[C@@H](Cc1c[nH]cn1)C(=O)O` [LLRH] (H-LLRH-OH), the IC50 was 308 µM. The molecule `CC(C)C[C@H](N)C(=O)N[C@@H](CCCNC(=N)N)C(=O)O` [LR] gave an IC50 of 158 µM. For `CC(C)C[C@H](N)C(=O)N[C@H](C(=O)N[C@@H](CCCCN)C(=O)N[C@@H](Cc1ccccc1)C(=O)O)C(C)C` [LVKF] (H-LVKF-OH) the value was 24.6 µM; for `NC(N)=NCCC[C@H](NC(=O)[C@@H](N)CCCN=C(N)N)C(=O)O` [RR] (H-Arg-Arg-OH), 482 µM. In turn, `CC(C)[C@H](N)C(=O)N[C@@H](CCCCN)C(=O)N[C@@H](Cc1ccccc1)C(=O)O` [VKF] (H-Val-Lys-Phe-OH) registered an IC50 of 10.4 µM.

As to HFEAMR [HFEAMR], the IC50 was determined as 192 µM. For LASPTM [LASPTM] the value was 59.8 µM. In turn, LFVAAP [LFVAAP] gave an IC50 of 70.2 µM. The same measure for LGALPF [LGALPF]: 2690 µM; for LGECGGR [LGECGGR]: 233 µM; for LLHSPP [LLHSPP]: 222 µM. For the molecule LLMPK [LLMPK], 686 µM corresponded to half-maximal inhibition (IC50). The same measure for LYHVL [LYHVL]: 17.5 µM; for MPFLFK [MPFLFK]: 92.4 µM.

With PLFPK [PLFPK], the IC50 is 41.3 µM.

The molecule VFKAF [VFKAF] yielded an IC50 of 100 µM.

VVCVPW [VVCVPW]: the IC50 is 4.07 µM and 4.1 µM.
